According to patent US20220356538A1, “HEPATITIS B VIRUS MUTANTS WITH INCREASED […] CIRCULAR DNA” (The Penn State Research Foundation, priority 2019, published 2022):

Columns and labels:
[1] = system: HBV core DNA; assay: HBV core DNA synthesis: Southern blot of NC-associated core DNA from transfected cells; format: cell-based, Hepatitis B virus
Source text: (§1) FIG. 1. Effects of HBc linker mutations on cccDNA levels and NC stability. HBV replication plasmids expressing either the wild type (wt) HBc or indicated linker mutants were transfected into human hepatoma cells (HepG2). HBV DNA associated with NCs (core DNA) (lanes 1-8), or protein-free DNA (PF-DNA) (i.e., those DNA species no longer covalently attached to the viral RT protein and mostly released from NCs) (lanes 9-12) was extracted from the transfected cells and analyzed by Southern blot analysis using a radio-labeled HBV DNA probe. The core DNA shown in lanes 5-8 was extracted following prior treatment of the cell lysate with an exogenous DNase, which removes core DNA that was not protected by the capsid (i.e., from destabilized NCs). RC, rcDNA; CCC, cccDNA; SS, single stranded DNA—a reverse transcription intermediate during the synthesis of rcDNA from pgRNA.
FIG. 4. HBc linker mutants increased HBV CCC DNA by 2-30 fold. Data are shown for LC (S141T/V148I/V149I), S141A, S141D, S141R, L143A, L143I, E145D, and TT146/147AA (a combination of T146A and T147A; aka T146A/T147A).

[2] = system: HBV cccDNA; assay: HBV cccDNA levels: Southern blot of protein-free DNA from HepG2 cells transfected with HBV replication plasmids; format: cell-based, Hepatitis B virus
Source text: as §1
FIG. 3. Effects of HBc linker and envelope mutations on cccDNA levels. […] HBV DNA associated with NCs (core DNA; A), or protein-free DNA (PF-DNA; B) (i.e., those DNA species no longer covalently attached to the viral RT protein and mostly released from NCs) was extracted from the transfected cells and analyzed by Southern blot analysis using a radio-labeled HBV DNA probe. […]

L140A [Mutant L140A] was tested, and the “HBV core DNA synthesis” value [1] was “blocked HBV core DNA synthesis” and the cccDNA formation [2] was “no cccDNA was made”.
